Data taken from patent US11028080B2, “Substituted pyrimidines as LRKK2 inhibitors” (Denali Therapeutics Inc., priority 2016, dated 2021).

Target: LRRK2 G2019S enzyme (Homo sapiens (Human), UniProt Q5S007, G2019S)
Test: LRRK2 G2019S biochemical TR-FRET assay (LRRKtide substrate)
Settings: 5 nM LRRK2, 134 μM ATP, 60 minute reaction time, 23° C.
Procedure: Materials: • LRRK2 G2019S enzyme • Substrate (LRRKtide) • ATP • TR-FRET dilution buffer • pLRRKtide antibody • 384-well assay plate • DMSO • Enzyme reaction conditions • 50 mM Tris pH 7.5, 10 mM MgCl2, 1 mM EGTA, 0.01% Brij-35, 2 mM DTT • 5 nM LRRK2 • 134 μM ATP • 60 minute reaction time • 23° C. reaction temperature • 10 μL total reaction volume
Detection reaction conditions • 1×TR-FRET dilution buffer • 10 mM EDTA • 2 nM antibody • 23° C. reaction temperature • 10 μL total reaction volume
Compounds were prepared by initially diluting to 1 mM with DMSO. 35 μL of reference compound solution, 35 μL of test compound solution, and 35 μL HPE were successively added to the source plate (384-well assay plate, Labcyte). The plates were centrifuged at 2500 rpm for 1 minute and sealed in foil. POD was used to perform a 3.162 fold serial dilution and 100 nL of reference compound solution, test compound solution, HPE and ZPE were transferred to assay plates. The assay plate was centrifuged at 2500 rpm for 1 minute, and sealed with foil.
To perform the enzyme reaction, 5 μL of LRRKtide substrate and kinase mixture in assay buffer was added to all wells of the assay plate. The plate was centrifuged to concentrate the mixture at the bottom of the wells. The assay plate was incubated at 23° C. for 20 minutes. Following incubation, 5 μL of 2×ATP in assay buffer was added to each well, and plates were centrifuged to concentrate the mixture at the bottom of the wells. The plate was incubated at 23° C. for 60 minutes.
To perform the detection of the reaction, EDTA completely mixed in TR-FRET dilution buffer was added to antibody reagent. 10 μL of detection reagent was added to all wells of each well of the assay plate and the plate was centrifuged to concentrate the mixture at the bottom of the wells. The plate was then incubated at 23° C. for 60 minutes. Plates were read on Perkin Elmer Envision 2104 instrument in TR-FRET mode using a 340 nm excitation filter, 520 nm fluorescence emission filter, and 490 or 495 nm terbium emission filter.
In the table below, activity is provided as follows: In the table below, activity is provided as follows: +++=IC50 less than 30 nM; ++=IC50 between 30 nM and 60 nM; +=IC50 greater than 60 nM.

LRRK2 G2019S enzyme, sequence (Q5S007 whole entry G2019S): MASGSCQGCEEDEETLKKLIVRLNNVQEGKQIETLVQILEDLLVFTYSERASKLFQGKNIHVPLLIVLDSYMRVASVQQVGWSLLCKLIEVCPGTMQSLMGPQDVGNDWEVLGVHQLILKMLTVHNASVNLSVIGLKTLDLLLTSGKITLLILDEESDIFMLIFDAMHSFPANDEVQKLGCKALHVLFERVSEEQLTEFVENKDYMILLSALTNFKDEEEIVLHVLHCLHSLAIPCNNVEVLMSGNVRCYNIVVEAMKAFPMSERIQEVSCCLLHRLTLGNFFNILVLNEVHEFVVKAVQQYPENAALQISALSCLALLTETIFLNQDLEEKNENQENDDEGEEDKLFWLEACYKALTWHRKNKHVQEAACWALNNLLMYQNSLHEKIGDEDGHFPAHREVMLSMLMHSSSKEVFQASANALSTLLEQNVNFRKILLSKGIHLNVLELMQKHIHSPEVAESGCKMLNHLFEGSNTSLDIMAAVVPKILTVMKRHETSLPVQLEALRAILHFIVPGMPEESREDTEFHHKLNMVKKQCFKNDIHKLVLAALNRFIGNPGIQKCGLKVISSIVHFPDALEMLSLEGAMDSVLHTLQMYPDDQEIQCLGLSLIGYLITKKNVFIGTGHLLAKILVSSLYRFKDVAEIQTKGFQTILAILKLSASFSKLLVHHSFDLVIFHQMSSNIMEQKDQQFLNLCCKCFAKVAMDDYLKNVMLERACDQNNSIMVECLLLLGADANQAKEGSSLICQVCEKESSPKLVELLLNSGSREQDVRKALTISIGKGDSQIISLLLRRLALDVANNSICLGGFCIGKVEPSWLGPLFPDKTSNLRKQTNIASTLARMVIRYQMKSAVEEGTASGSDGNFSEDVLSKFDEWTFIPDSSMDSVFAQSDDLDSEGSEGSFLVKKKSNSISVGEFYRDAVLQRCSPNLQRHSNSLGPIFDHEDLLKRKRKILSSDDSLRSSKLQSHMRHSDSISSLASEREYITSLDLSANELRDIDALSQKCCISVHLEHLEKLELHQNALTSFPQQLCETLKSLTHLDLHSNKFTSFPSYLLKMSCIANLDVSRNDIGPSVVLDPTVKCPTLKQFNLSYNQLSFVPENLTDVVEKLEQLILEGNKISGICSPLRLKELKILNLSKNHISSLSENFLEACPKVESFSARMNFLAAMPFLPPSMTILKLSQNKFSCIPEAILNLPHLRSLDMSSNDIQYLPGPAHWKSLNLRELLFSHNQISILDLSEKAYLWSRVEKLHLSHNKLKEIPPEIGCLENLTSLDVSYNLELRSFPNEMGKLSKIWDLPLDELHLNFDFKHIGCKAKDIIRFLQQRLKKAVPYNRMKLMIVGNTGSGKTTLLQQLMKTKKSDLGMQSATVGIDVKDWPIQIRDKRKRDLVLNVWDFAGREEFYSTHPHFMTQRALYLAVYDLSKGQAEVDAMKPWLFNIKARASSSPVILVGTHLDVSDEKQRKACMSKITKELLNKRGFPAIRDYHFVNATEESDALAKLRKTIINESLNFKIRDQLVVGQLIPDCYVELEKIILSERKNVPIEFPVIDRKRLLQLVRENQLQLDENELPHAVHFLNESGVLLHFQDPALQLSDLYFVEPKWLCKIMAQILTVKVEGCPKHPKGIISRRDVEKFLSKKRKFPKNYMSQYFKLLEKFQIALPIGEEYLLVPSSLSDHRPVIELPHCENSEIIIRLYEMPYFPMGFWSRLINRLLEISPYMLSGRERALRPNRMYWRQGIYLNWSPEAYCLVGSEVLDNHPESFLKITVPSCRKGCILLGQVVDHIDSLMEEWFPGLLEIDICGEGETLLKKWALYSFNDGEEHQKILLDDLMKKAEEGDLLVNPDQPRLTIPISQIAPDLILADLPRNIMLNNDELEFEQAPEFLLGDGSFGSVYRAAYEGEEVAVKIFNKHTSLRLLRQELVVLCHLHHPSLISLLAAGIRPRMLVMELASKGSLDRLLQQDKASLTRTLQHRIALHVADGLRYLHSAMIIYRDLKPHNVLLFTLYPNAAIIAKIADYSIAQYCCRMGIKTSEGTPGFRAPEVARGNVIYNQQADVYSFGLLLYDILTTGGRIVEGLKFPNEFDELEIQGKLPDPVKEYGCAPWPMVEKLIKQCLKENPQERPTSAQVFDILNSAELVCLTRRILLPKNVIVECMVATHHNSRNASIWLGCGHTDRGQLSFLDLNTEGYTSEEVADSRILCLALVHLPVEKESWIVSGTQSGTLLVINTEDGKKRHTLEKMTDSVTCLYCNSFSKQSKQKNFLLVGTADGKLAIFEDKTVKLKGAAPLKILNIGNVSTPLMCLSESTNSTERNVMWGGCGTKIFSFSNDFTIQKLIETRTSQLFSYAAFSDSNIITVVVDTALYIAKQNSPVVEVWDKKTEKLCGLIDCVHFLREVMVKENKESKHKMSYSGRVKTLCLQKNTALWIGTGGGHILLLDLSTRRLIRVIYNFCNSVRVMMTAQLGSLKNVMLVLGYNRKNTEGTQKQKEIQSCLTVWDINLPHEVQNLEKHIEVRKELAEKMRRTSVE

| IC50 [nM] | Structure (SMILES) |
| --- | --- |
| < 30 | CCNc1nc(Nc2sc(C3(C#N)CC3)nc2C)ncc1C(F)(F)F [Compound 32] |
| < 30 | CCNc1nc(Nc2cn(S(C)(=O)=O)c(C#N)c2C)ncc1C(F)(F)F [Compound 16, 4-((4-(ethylamino)-5-(trifluoromethyl)pyrimidin-2-yl)amino)-3-methyl-1-(methylsulfonyl)-1H-pyrrole-2-carbonitrile] |
| < 30 | [2H]C([2H])([2H])C1(c2nc(C3CC3)c(Nc3ncc(Br)c(OC)n3)s2)CCNC1=O (single isomer, unassigned) [Compound 53] |
| < 30 | CC(C)(C(N)=O)c1nc(Cl)c(Nc2ncc(C(F)(F)F)c(NCC(F)F)n2)s1 [Compound 40] |
| < 30 | [2H]C([2H])([2H])N1CCC(c2nc(Cl)c(Nc3ncc(C(F)(F)F)c(NC)n3)s2)(C([2H])([2H])[2H])C1=O (single isomer, unassigned) [Compound 45] |
| < 30 | CNc1nc(Nc2sc(C(C)(C)C#N)nc2C)ncc1C(F)(F)F [Compound 17, 2-methyl-2-(4-methyl-5-((4-(methylamino)-5-(trifluoromethyl)pyrimidin-2-yl)amino)thiazol-2-yl)propanenitrile] |
| < 30 | CCNc1nc(Nc2sc(C(=O)N3CCOCC3)nc2C)ncc1C(F)(F)F [Compound 24] |
| < 30 | [2H]C([2H])([2H])C1(c2nc(Cl)c(Nc3ncc(C(F)(F)F)c(NC)n3)s2)CCNC1=O (single isomer, unassigned) [Compound 42] |
| < 30 | [2H]C([2H])([2H])N1CCC(c2nc(Cl)c(Nc3ncc(C(F)(F)F)c(NCC)n3)s2)(C([2H])([2H])[2H])C1=O (single isomer, unassigned) [Compound 46] |
| < 30 | [2H]C([2H])([2H])N1CCC(c2nc(C)c(Nc3ncc(C(F)(F)F)c(NC)n3)s2)(C([2H])([2H])[2H])C1=O (stereo not shown) [Compound 23] |
| < 30 | CCNc1nc(Nc2sc(C(C)(C)C(N)=O)nc2Cl)ncc1Br [Compound 38] |
| < 30 | Cc1nc(C(C)(C)c2nnn(C)n2)sc1Nc1ncc(C(F)(F)F)c(C2CC2)n1 [Compound 31] |
| < 30 | [2H]C([2H])([2H])C1(c2nc(Cl)c(Nc3ncc(C(F)(F)F)c(NC)n3)s2)CCNC1=O (single isomer, unassigned) [Compound 43] |
| < 30 | COc1nc(Nc2sc(C(C)(C)C(N)=O)nc2Cl)ncc1Br [Compound 39] |
| < 30 | CNc1nc(Nc2sc(C(C)(C)C(N)=O)nc2C)ncc1C(F)(F)F [Compound 22] |

Second part, the compound before the results:

| Structure (SMILES) | IC50 [nM] |
| --- | --- |
| Cc1nc(C2(c3nc[nH]n3)CC2)sc1Nc1ncc(C(F)(F)F)c(C2CC2)n1 [Compound 3] | < 30 |
| [2H]C([2H])([2H])N1CCC(c2nc(Cl)c(Nc3ncc(C(F)(F)F)c(NCC)n3)s2)(C([2H])([2H])[2H])C1=O (single isomer, unassigned) [Compound 47] | < 30 |
| CCNc1nc(Nc2sc(C(=O)NC)nc2C)ncc1C(F)(F)F [Compound 28] | < 30 |
| [2H]C([2H])([2H])C1(c2nc(C3CC3)c(Nc3ncc(C(F)(F)F)c(NCC)n3)s2)CCNC1=O (single isomer, unassigned) [Compound 51] | < 30 |
| CNc1nc(Nc2sc(C(C)(C)C#N)nc2Cl)ncc1C(F)(F)F [Compound 36] | < 30 |
| [2H]C([2H])([2H])C1(c2nc(C3CC3)c(Nc3ncc(Br)c(OC)n3)s2)CCNC1=O (single isomer, unassigned) [Compound 54] | < 30 |
| CNc1nc(Nc2sc(C(C)(C)C(N)=O)nc2Cl)ncc1C(F)(F)F [Compound 25] | < 30 |
| Cc1nc(C(C)(C)c2nc[nH]n2)sc1Nc1ncc(C(F)(F)F)c(C2CC2)n1 [Compound 1] | < 30 |
| CNc1nc(Nc2sc(C3(C#N)CC3)nc2C)ncc1C(F)(F)F [Compound 2] | < 30 |
| [2H]C([2H])([2H])N1CCC(c2nc(Cl)c(Nc3ncc(C(F)(F)F)c(NC)n3)s2)(C([2H])([2H])[2H])C1=O (single isomer, unassigned) [Compound 44] | < 30 |
| [2H]C([2H])([2H])C1(c2nc(C3CC3)c(Nc3ncc(C(F)(F)F)c(NC)n3)s2)CCNC1=O (single isomer, unassigned) [Compound 60] | < 30 |
| [2H]C([2H])([2H])C1(c2nc(Cl)c(Nc3ncc(Br)c(OC)n3)s2)CCNC1=O (single isomer, unassigned) [Compound 49] | < 30 |
| Cc1nc(C(C)(C)C(N)=O)sc1Nc1ncc(C(F)(F)F)c(C2CC2)n1 [Compound 30] | < 30 |
| CCNc1nc(Nc2sc(C(=O)N3CC4CCC(C3)O4)nc2C)ncc1C(F)(F)F [Compound 33] | < 30 |
| [2H]C([2H])([2H])C1(c2nc(Cl)c(Nc3ncc(Br)c(OC)n3)s2)CCNC1=O (single isomer, unassigned) [Compound 48] | < 30 |
| CNc1nc(Nc2sc(C(C)(C)C#N)nc2C2CC2)ncc1C(F)(F)F [Compound 61] | < 30 |
| CCNc1nc(Nc2cn(Cc3ccn(C)n3)c(C#N)c2C)ncc1C(F)(F)F [Compound 15, 4-((4-(ethylamino)-5-(trifluoromethyl)pyrimidin-2-yl)amino)-3-methyl-1-((1-methyl-1H-pyrazol-3-yl)methyl)-1H-pyrrole-2-carbonitrile] | < 30 |
| CCNc1nc(Nc2sc(C(=O)N3CCC(F)(F)C3)nc2C)ncc1C(F)(F)F [Compound 10] | < 30 |
| CC(C)(C(N)=O)c1nc(Cl)c(Nc2ncc(C(F)(F)F)c(NC3CC3)n2)s1 [Compound 34] | < 30 |
| Cc1nc(C(C)(C)C(N)=O)sc1Nc1ncc(C(F)(F)F)c(NC2CC2)n1 [Compound 29] | < 30 |
| [2H]C([2H])([2H])C1(c2nc(C3CC3)c(Nc3ncc(C(F)(F)F)c(NCC)n3)s2)CCNC1=O (single isomer, unassigned) [Compound 52] | < 30 |
| CCNc1nc(Nc2sc(C(C)(C)C(N)=O)nc2Cl)ncc1C(F)(F)F [Compound 37] | < 30 |
| CCNc1nc(Nc2sc(C#N)nc2C)ncc1C(F)(F)F [Compound 27] | < 30 |
| CCNc1nc(Nc2sc(C(C)(C)C#N)nc2Cl)ncc1C(F)(F)F [Compound 50] | < 30 |
| CCNc1nc(Nc2sc(C(C)(C)C(N)=O)nc2C)ncc1C(F)(F)F [Compound 26] | < 30 |
| CC(C)(C(N)=O)c1nc(Cl)c(Nc2ncc(Br)c(NC3CC3)n2)s1 [Compound 41] | < 30 |
| CNc1nc(Nc2cn(C)c(C#N)c2C)ncc1C(F)(F)F [Compound 14, 1,3-dimethyl-4-((4-(methylamino)-5-(trifluoromethyl)pyrimidin-2-yl)amino)-1H-pyrrole-2-carbonitrile] | < 30 |
| [2H]C([2H])([2H])C1(c2nc(C3CC3)c(Nc3ncc(C(F)(F)F)c(NC)n3)s2)CCNC1=O (single isomer, unassigned) [Compound 59] | < 30 |
